Read-outs that look alike come from different tables or passages of the source. *1 amine or outer side, *2 acyl side, *3 side chain or, on linkers, in order; H or OH if unused. Where a SMILES comes first, the peptide text is derived from it. Where no end group is shown, it is not given here. Side-chain parts run from the residue outwards. [ ]: non-standard residue; d: D form. The star is where a group is joined. C20 diacid = O=C(O)CCCCCCCCCCCCCCCCCCC(=O)*; C18 diacid = O=C(O)CCCCCCCCCCCCCCCCC(=O)*; γGlu = O=C(O)[C@H](CCC(=O)[*:2])N[*:1]; εLys = N[C@@H](CCCCN[*:1])C(=O)[*:2]; Aib = CC(C)(N)C(=O)O
T1: human glucose-dependent insulinotropic polypeptide receptor (human, UniProt P48546 22-466)
T1 sequence (looked up): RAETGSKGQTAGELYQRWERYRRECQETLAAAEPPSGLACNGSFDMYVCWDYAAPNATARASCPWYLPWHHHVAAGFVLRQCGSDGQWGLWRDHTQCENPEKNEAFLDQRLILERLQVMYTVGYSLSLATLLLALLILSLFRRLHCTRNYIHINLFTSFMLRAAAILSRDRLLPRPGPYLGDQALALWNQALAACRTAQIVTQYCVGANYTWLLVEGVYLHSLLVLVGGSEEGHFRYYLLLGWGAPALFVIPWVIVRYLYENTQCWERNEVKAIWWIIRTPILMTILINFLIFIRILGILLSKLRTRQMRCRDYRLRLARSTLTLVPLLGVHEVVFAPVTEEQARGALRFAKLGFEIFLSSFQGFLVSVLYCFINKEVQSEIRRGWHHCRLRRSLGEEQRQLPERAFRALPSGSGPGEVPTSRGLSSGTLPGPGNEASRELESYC

B1: Compound No. 3 (peptide)
peptide: Y[Aib]QGTFTSDYSIYLDKQAA[Aib]KFVNWLLAGGPSSGAPPPS-NH2
modifications: not fully specified (residue 21); printed as Y-Aib-QGTFTSDYSIYLDKQAA-Aib-K[2-[2-[2-[[2-[2-[2-[[(4S)-4-carboxy-4-(17-carboxyheptadecanoylamino)butanoyl]amino]ethoxy]ethoxy]acetyl]amino]ethoxy]ethoxy]acetyl]-FVNWLLAGGPSSGAPPPS-NH2

Assays:
[1] = Maximal efficacy study in DIO mice, daily s.c. dose titration for up to 60 days (body weight, food intake); type: in vivo, C57BL/6J male mice; conditions: for Absolute BW (grams) Day 0: Day 0 (baseline); for Absolute BW (grams) Day 0 / Absolute BW (grams) Last day of treatment / Change in BW (%) Last day of treatment: mean ± SEM; for Absolute BW (grams) Last day of treatment / Change in BW (%) Last day of treatment / Average food intake per mouse (grams/day): s.c. once daily; for Absolute BW (grams) Last day of treatment / Change in BW (%) Last day of treatment: dose titration of Table 4, last day of treatment; for Average food intake per mouse (grams/day): dose titration of Table 4, mean ± SEM, n = 1-2
Protocol: The purpose of this example is to assess the in vivo effect of selected triple agonists on pharmacodynamic parameters in diet-induced obese (DIO) mice. The animals were treated once daily via subcutaneous injection with a liquid formulation of the triple agonist to be tested to assess effects on body weight, foot intake, and glucose tolerance.
C57BL/6J male mice were purchased from Jackson Laboratories at approximately 8 weeks of age. Mice were group housed and fed a high-fat, high-sugar diet from Research Diets (D12331). Mice were maintained on this diet for 12 weeks prior to initializing the pharmacology studies. Mice exceeding a measured body weight of 50 grams were considered diet-induced obese (DIO) and included in pharmacology studies. Mice were exposed to a controlled 12 h:12 h light:dark cycle at ambient room temperature (22° C.) with ab libitum access to food and water. Studies were approved by and performed according to the guidelines of the Institutional Animal Care and Use Committee of the University of Cincinnati.
All compounds in the study were formulated in the following buffer: 50 mM phosphate; 70 mM sodium chloride; 0.05% Tween-80, pH 7.4. Dosing solutions were formulated in glass vials and stored at 2-8° C. Dosing solutions were brought to room temperature before dosing and returned to 2-8° C. after dosing.
DIO mice were distributed into groups (n=8 per group) such that statistical variations in the mean and standard deviations of fat mass and body weight were minimized between groups. The animals were grouped to receive treatment as follows: Vehicle or GLP-1/GIP/Gcg receptor triple agonists as described herein, where vehicle is 50 mM phosphate, 70 mM sodium chloride; 0.05% (v/v) Tween-80, pH 7.4. The test compounds were dissolved in the vehicle, to stock concentrations of […], then diluted 50- to 200-fold in the vehicle to achieve the desired dosing solution concentrations. Animals were dosed subcutaneously once daily in the morning for each day of treatment with dosing solution at a volume of 2-5 μL per gram of body weight as necessary to achieve the desired dose (e.g. 0.3 nmol/kg, 1.0 nmol/kg, or 3.0 nmol/kg).
Body weight (BW) and food intake were measured immediately prior to dosing each day. The percent change in body was calculated individually for each mouse based on initial body weight prior to the first injection.
In one study, DIO mice received a daily subcutaneous dose for up to 60 days of one of the following: vehicle, Compound No. 21, Compound No. 30, or Compound No. 33. The dose of each compound was up-titrated to maximal efficacy based on the titration schedule included in Table 4. Mice that achieved body weight normalization, defined as a body weight of 22.5 g or less, were voluntarily removed from the study. All triple agonist compounds tested resulted is substantially greater reductions of body weight and food intake than vehicle. […] This may be explained by the similar GLP-1R and GIPR in vitro potency but reduced in vitro GcgR potency of Compound No. 21 compared to Compound No. 30 and Compound No. 33 when investigated with the protocol described in Example 2 except using the mouse-specific receptors.

[2] = Pharmacokinetic study in minipigs, i.v. administration; parameters: species or system Göttingen minipigs; conditions: female, Göttingen, minipig, in vivo, iv; minipigs, i.v. administration, harmonic mean; read-out: Terminal half-life t1/2 (converted)
In short: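 Female Göttingen minipigs (7-14 months, 16-35 kg), fasted ~18 h pre-dose to 4 h post-dose, received i.v. injections of usually 1.5-2 nmol/kg via central venous catheter. Plasma sampled up to 14 days, assayed by ELISA or LCMS; terminal half-life (harmonic mean) from non-compartmental analysis.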

human Gcg receptor = biological target: T2, human Gcg receptor (Homo sapiens, UniProt P47871); assay: In vitro functional potency (CRE luciferase; whole cells), human GcgR; type: cell-based; conditions: BHK CRE luc2P hGcgR whole cells; Table 2; read-out: hGcgR CRE Luc EC50
T2 construct: expressed in transfected cells; host or cells: BHK cells (parent line BHKTS13) containing CRE luciferase
Protocol: The purpose of this example is to test the functional activity, or potency, of the compounds in vitro at the human and mouse GLP-1, GIP, and Gcg receptors. The in vitro functional potency is the measure of target receptor activation in a whole cell assay.
In vitro functional potency was determined by measuring the response of the target receptor in a reporter gene assay in individual cell lines. The assay was performed in stably transfected BHK cell lines that expresses one of the following G-protein coupled receptors: human GLP-1 receptor, human GIP receptor, human Gcg receptor, mouse GLP-1 receptor, mouse GIP receptor, or mouse Gcg receptor; and where each cell line contains the DNA for the cAMP response element (CRE) coupled to a promoter and the gene for firefly luciferase (CRE luciferase). When the respective receptor is activated, it results in the production of cAMP, which in turn results in expression of the luciferase protein. When assay incubation is completed, luciferase substrate (luciferin) is added resulting in the enzymatic conversion of luciferin to oxyluciferin and producing bioluminescence. The luminescence is measured as the readout for the assay.
The cells lines used in these assays were BHK cells with BHKTS13 as a parent cell line. The cell lines were derived from a clone containing the CRE luciferase element and were established by further transfection with the respective receptor to obtain the relevant cell line.
The cells were cultured at 37° C. with 5% CO2 in Cell Culture Medium. They were aliquoted and stored in liquid nitrogen. The cells were kept in continuous culture and were seeded out the day before each assay.
GLP-1R and GcgR Cell Culture Medium consisted of DMEM medium with 10% FBS, 500 µg/mL G418, and 300 µg/mL hygromycin. GIPR Cell Culture Medium consisted of DMEM medium with 10% FBS, 400 µg/mL G418, and 300 µg/mL hygromycin. Assay Buffer consisted of DMEM w/o phenol red, 10 mM Hepes, 1× Glutamax, 1% ovalbumin, and 0.1% Pluronic F-68.
• 1) Cells were plated at 5000 cells/well and incubated overnight in the assay plate. • 2) Cells were washed once in DPBS. • 3) Stocks of the test compounds and reference compounds in concentrations ranging from 100-300 pM were diluted 1:150 in Assay Buffer.
The data from the microtiter plate reader was first regressed in an Excel in order to calculate the x-axis, log scale concentrations based on the individual test compound's stock concentration and the dilutions of the assay. […] The software performs a non-linear regression (log(agonist) vs response). A minimum of two replicates was measured for each sample. The reported values are averages of the replicates.

[3] = biological target: T1, human glucose-dependent insulinotropic …; assay: cell-based or functional assay
human glucagon receptor [4] = biological target: T3, human glucagon receptor (human, UniProt P47871 26-477); assay: cell-based or functional assay
[5] = biological target: T4, human glucagon-like peptide 1 receptor (human, UniProt P43220 24-463); assay: cell-based or functional assay
[6] = biological target: T1, human glucose-dependent insulinotropic …; assay: cell-based or functional assay; remark: listed apart in the source
human glucagon receptor [7] = biological target: T3, human glucagon receptor; assay: cell-based or functional assay; remark: listed apart in the source
[8] = biological target: T4, human glucagon-like peptide 1 receptor; assay: cell-based or functional assay; remark: listed apart in the source

T3 sequence (P47871 26-477): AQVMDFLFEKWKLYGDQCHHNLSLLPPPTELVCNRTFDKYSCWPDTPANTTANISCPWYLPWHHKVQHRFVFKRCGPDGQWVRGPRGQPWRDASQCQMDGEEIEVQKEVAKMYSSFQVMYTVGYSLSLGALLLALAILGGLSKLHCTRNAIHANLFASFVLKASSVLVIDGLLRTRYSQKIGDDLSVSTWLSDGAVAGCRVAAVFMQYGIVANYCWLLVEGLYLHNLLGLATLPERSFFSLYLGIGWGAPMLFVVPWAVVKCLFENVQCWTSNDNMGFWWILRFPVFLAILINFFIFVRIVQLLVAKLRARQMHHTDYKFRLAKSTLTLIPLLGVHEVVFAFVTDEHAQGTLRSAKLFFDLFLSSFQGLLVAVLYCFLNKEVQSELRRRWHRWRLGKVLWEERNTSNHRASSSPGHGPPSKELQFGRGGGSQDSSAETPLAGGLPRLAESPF
T2 sequence (P47871 26-477): as above

Molecule | Absolute BW (grams) Day 0 [1] | Absolute BW (grams) Last day of treatment [1] | Change in BW (%) Last day of treatment [1] | Average food intake per mouse (grams/day) [1] | half-life [2] | EC50 (human Gcg receptor) | hGIPR CRE Luc EC50 (pM) [3] | hGcgR CRE Luc EC50 (pM) (human glucagon receptor [4]) | hGLP-1R CRE Luc EC50 (pM) [5] | hGIPR CRE Luc EC50 (pM) [6] | hGcgR CRE Luc EC50 (pM) (human glucagon receptor [7]) | hGLP-1R CRE Luc EC50 (pM) [8]
CC[C@H](C)[C@H](NC(=O)[C@H](CO)NC(=O)[C@H](Cc1ccc(O)cc1)NC(=O)[C@H](CC(=O)O)NC(=O)[C@H](CO)NC(=O)[C@@H](NC(=O)[C@H](Cc1ccccc1)NC(=O)[C@@H](NC(=O)CNC(=O)[C@H](Cc1c[nH]cn1)NC(=O)C(C)(C)NC(=O)[C@@H](N)Cc1c[nH]cn1)[C@@H](C)O)[C@@H](C)O)C(=O)N[C@@H](Cc1ccc(O)cc1)C(=O)N[C@@H](CC(C)C)C(=O)N[C@@H](CCC(=O)O)C(=O)N[C@@H](CCCCNC(=O)[C@@H](N)CCCCNC(=O)[C@@H](N)CCCCNC(=O)CC[C@H](NC(=O)CCCCCCCCCCCCCCCCCCC(=O)O)C(=O)O)C(=O)N[C@@H](CCCCN)C(=O)N[C@@H](Cc1ccc(O)cc1)C(=O)N[C@@H](C)C(=O)NC(C)(C)C(=O)N[C@@H](CCC(=O)O)C(=O)N[C@@H](Cc1ccccc1)C(=O)N[C@H](C(=O)N[C@@H](CCC(N)=O)C(=O)N[C@@H](Cc1c[nH]c2ccccc12)C(=O)N[C@@H](CC(C)C)C(=O)N[C@@H](CC(C)C)C(=O)N[C@@H](CCC(=O)O)C(=O)NCC(=O)NCC(=O)N1CCC[C@H]1C(=O)N[C@@H](CO)C(=O)N[C@@H](CO)C(=O)NCC(=O)N[C@@H](C)C(=O)N1CCC[C@H]1C(=O)N1CCC[C@H]1C(=O)N1CCC[C@H]1C(=O)N[C@@H](CO)C(N)=O)C(C)C [Compound No. 30] (H-H[Aib]HGTFTSDYSIYLEK([εLys-εLys-γGlu-C20 diacid])KYA[Aib]EFVQWLLEGGPSSGAPPPS-NH2; N-terminus assumed) | 56.2 ± 1.3 grams | 22.2 ± 0.3 grams | −60.5 ± 0.4% | 1.39 ± 0.13 grams/day | 78 h |  |  |  |  |  |  | 
CC[C@H](C)[C@H](NC(=O)[C@H](CO)NC(=O)[C@H](Cc1ccc(O)cc1)NC(=O)[C@H](CC(=O)O)NC(=O)[C@H](CO)NC(=O)[C@@H](NC(=O)[C@H](Cc1ccccc1)NC(=O)[C@@H](NC(=O)CNC(=O)[C@H](Cc1c[nH]cn1)NC(=O)C(C)(C)NC(=O)[C@@H](N)Cc1c[nH]cn1)[C@@H](C)O)[C@@H](C)O)C(=O)N[C@@H](Cc1ccc(O)cc1)C(=O)N[C@@H](CC(C)C)C(=O)N[C@@H](CCC(=O)O)C(=O)N[C@@H](CCCCNC(=O)[C@@H](N)CCCCNC(=O)[C@@H](N)CCCCNC(=O)CC[C@H](NC(=O)CCCCCCCCCCCCCCCCCCC(=O)O)C(=O)O)C(=O)N[C@@H](CCCCN)C(=O)N[C@@H](C)C(=O)N[C@@H](C)C(=O)NC(C)(C)C(=O)N[C@@H](CCC(=O)O)C(=O)N[C@@H](Cc1ccccc1)C(=O)N[C@H](C(=O)N[C@@H](CCC(N)=O)C(=O)N[C@@H](Cc1c[nH]c2ccccc12)C(=O)N[C@@H](CC(C)C)C(=O)N[C@@H](CC(C)C)C(=O)N[C@@H](CCC(=O)O)C(=O)NCC(=O)NCC(=O)N1CCC[C@H]1C(=O)N[C@@H](CO)C(=O)N[C@@H](CO)C(=O)NCC(=O)N[C@@H](C)C(=O)N1CCC[C@H]1C(=O)N1CCC[C@H]1C(=O)N1CCC[C@H]1C(=O)N[C@@H](CO)C(N)=O)C(C)C [Compound No. 33] (H-H[Aib]HGTFTSDYSIYLEK([εLys-εLys-γGlu-C20 diacid])KAA[Aib]EFVQWLLEGGPSSGAPPPS-NH2) | 54.9 ± 2.6 grams | 24.8 ± 1.4 grams | −54.5 ± 3.5% | 1.38 ± 0.25 grams/day | 47 h |  |  |  |  |  |  | 
CC[C@H](C)[C@H](NC(=O)[C@H](CO)NC(=O)[C@H](Cc1ccc(O)cc1)NC(=O)[C@H](CC(=O)O)NC(=O)[C@H](CO)NC(=O)[C@@H](NC(=O)[C@H](Cc1ccccc1)NC(=O)[C@@H](NC(=O)CNC(=O)[C@H](Cc1c[nH]cn1)NC(=O)C(C)(C)NC(=O)[C@@H](N)Cc1c[nH]cn1)[C@@H](C)O)[C@@H](C)O)C(=O)N[C@@H](CC(C)C)C(=O)N[C@@H](CC(C)C)C(=O)N[C@@H](CCC(=O)O)C(=O)N[C@@H](CCCCNC(=O)[C@@H](N)CCCCNC(=O)[C@@H](N)CCCCNC(=O)CC[C@H](NC(=O)CCCCCCCCCCCCCCCCC(=O)O)C(=O)O)C(=O)N[C@@H](CCC(N)=O)C(=O)N[C@@H](C)C(=O)N[C@@H](C)C(=O)N[C@@H](Cc1c[nH]cn1)C(=O)N[C@@H](CCC(=O)O)C(=O)N[C@@H](Cc1ccccc1)C(=O)N[C@H](C(=O)N[C@@H](CCC(N)=O)C(=O)N[C@@H](Cc1c[nH]c2ccccc12)C(=O)N[C@@H](CC(C)C)C(=O)N[C@@H](CC(C)C)C(=O)N[C@@H](CCC(=O)O)C(=O)NCC(=O)NCC(=O)N1CCC[C@H]1C(=O)N[C@@H](CO)C(=O)N[C@@H](CO)C(=O)NCC(=O)N[C@@H](C)C(=O)N1CCC[C@H]1C(=O)N1CCC[C@H]1C(=O)N1CCC[C@H]1C(=O)N[C@@H](CO)C(=O)O)C(C)C [Compound No. 56] (H-H[Aib]HGTFTSDYSILLEK([εLys-εLys-γGlu-C18 diacid])QAAHEFVQWLLEGGPSSGAPPPS-OH) |  |  |  |  |  | 6.4 pM |  |  |  |  |  | 
B1 |  |  |  |  |  |  | 27.5 pM | 34.7 pM | 5.4 pM | 27.5 pM | 34.7 pM | 5.4 pM

Source: patent US20230391845A1, “GLP-1, GIP AND GLUCAGON RECEPTOR TRIPLE AGONISTS” (priority 2020, published 2023)
